Several values for one entry are separate records, joined by “and”; a condition that tells them apart may be missing. Identical values can stand only once.
Assays:
[1] = system: human primary hepatocytes; experiment: Intracellular lipid accumulation (steatosis) in primary human hepatocytes co-treated with sFA+TNF-α, LipidTOX fluorescence microscopy after 72h; assay type: cell-based; design: Rx effect (lipid): scale not given here; settings: for Rx effect (Lipid: total lipid area subtracted from baseline sFA+TNFa, normalized to nuclei count): 72 h; for Rx effect (lipid): donor 2
Experimental: Hepatocyte lipotoxicity appears to be a central driver of hepatic cellular injury via oxidative stress and endoplasmic reticulum (ER) stress. The ability of amino acids combined to therapeutics agents (Rx) to influence steatosis (lipid accumulation) and inflammation in hepatocytes was assessed using human primary hepatocytes purchased from two sources: Lonza and Sekisui Xenotech. […] After 6 hours, cells were washed twice and incubated overnight at 37° C., 5% CO2 in hepatocytes plating media. On day 1, cells were washed twice and incubated for 24h in Hepatocytes defined medium (Corning) supplemented with 2mM Glutamax (Gibco), and 1x Penicillin/Streptomycin in the same conditions described above. […] The values are published in the Human Metabolome Database (Wishart DS, Tzur D, Knox C, et al., HMDB: the Human Metabolome Database. Nucleic Acids Res. 2007 Jan; 35(Database issue):[…]-6. 17202168; which is hereby incorporated by reference in its entirety). […] After 24 hours incubation, media was removed for chemokine analysis (MCP1) and the same co treatment was reapplied for an additional 48 hours for a total of 72 hours. After 72 hours, cells were washed twice with PBS 1x (Gibco), fixed with 4% Paraformaldehyde, and washed twice with PBS 1x (100 ul). […] The LipidTOXTM neutral lipid stain has an extremely high affinity for neutral lipid droplets that was detected by fluorescence microscopy using a high content imager (Molecular Devices). Lipid was normalized to the specific per well cell density determined by nuclei count.

MCP1/CCL2 secretion = MCP1/CCL2 secretion by primary human hepatocytes co-treated with sFA+TNF-α, ELISA after 24h; assay type: cell-based; design: Rx effect / Rx effect (MCP1): scale not given here; settings: for Rx effect: MCP1; for MCP1 level / MCP1 secretion compared to baseline (sFA+TNF-α): Results 1, donors 1 and 2, AA compositions at 20X; for MCP1 level / MCP1 secretion level compared to the baseline (sFA+TNF-α): Results 2, donor 2
Experimental: Hepatocyte lipotoxicity appears to be a central driver of hepatic cellular injury via oxidative stress and endoplasmic reticulum (ER) stress. The ability of amino acids combined to therapeutics agents (Rx) to influence steatosis (lipid accumulation) and inflammation in hepatocytes was assessed using human primary hepatocytes purchased from two sources: Lonza and Sekisui Xenotech. Primary hepatocytes from two healthy human donor were seeded on day 0 at density of 60000 cells in 96 well optical microplates (Thermofisher) in hepatocyte plating media (William's E medium (Gibco) supplemented with 10% heat-inactivated FBS (Atlanta Bio), 2mM Glutamax (Gibco), and 0.2% Primocin (InVivoGen) and incubated for 6 hours at 37° C., 5% CO2. After 6 hours, cells were washed twice and incubated overnight at 37° C., 5% CO2 in hepatocytes plating media. On day 1, cells were washed twice and incubated for 24h in Hepatocytes defined medium (Corning) supplemented with 2mM Glutamax (Gibco), and 1x Penicillin/Streptomycin in the same conditions described above. On day 2, cells were washed twice with DPBS 1X (Gibco) and maintained in amino acid-free WEM (US Biologicals) containing a defined custom amino acid concentration based on the mean physiological concentrations in blood. The values are published in the Human Metabolome Database (Wishart DS, Tzur D, Knox C, et al., HMDB: the Human Metabolome Database. Nucleic Acids Res. 2007 Jan; 35(Database issue):[…]-6. 17202168; which is hereby incorporated by reference in its entirety). […] Cells were maintained in this defined pretreatment media for 24 hours at 37° C., 5% CO2. […] After 24 hours incubation, media was removed for chemokine analysis (MCP1) and the same co treatment was reapplied for an additional 48 hours for a total of 72 hours. Human CCL2 (MCP-1) was measured by ELISA (Human […] DuoSet ELISA, R&D Systems) at 1/20 dilution in 1X Reagent Diluent (Reagent Ancillary Kit 2, R&D Systems). Lipid was normalized to the specific per well cell density determined by nuclei count.

[2] = Results 1, donors 1 and 2, AA compositions at 20X

O=C(O)c1ccnc(N2CC(O)(c3ccc(OCc4c(-c5c(Cl)cccc5Cl)noc4C4CC4)cc3Cl)C2)c1 [Cilofexor, 2-(3-(2-chloro-4-((5-cyclopropyl-3-(2,6-dichlorophenyl)isoxazol-4-yl)methoxy)phenyl)-3-hydroxyazetidin-1-yl)isonicotinic acid]
Rx effect (Lipid: total lipid area subtracted from baseline sFA+TNFa, normalized to nuclei count) ([1]; Donor 1, Rx Conc. 0.031 µM): 0.019 | Rx effect (Lipid: total lipid area subtracted from baseline sFA+TNFa, normalized to nuclei count) ([1]; Donor 1, Rx Conc. 0.125 µM): 0.072 | Rx effect (Lipid: total lipid area subtracted from baseline sFA+TNFa, normalized to nuclei count) ([1]; Donor 1, Rx Conc. 0.500 µM): 0.027 | Rx effect (Lipid: total lipid area subtracted from baseline sFA+TNFa, normalized to nuclei count) ([1]; Donor 1, Rx Conc. 2.000 µM): 0.195 | Rx effect (Lipid: total lipid area subtracted from baseline sFA+TNFa, normalized to nuclei count) ([1]; Donor 2, Rx Conc. 0.031 µM): -0.049 | Rx effect (Lipid: total lipid area subtracted from baseline sFA+TNFa, normalized to nuclei count) ([1]; Donor 2, Rx Conc. 0.125 µM): 0.031 | Rx effect (Lipid: total lipid area subtracted from baseline sFA+TNFa, normalized to nuclei count) ([1]; Donor 2, Rx Conc. 0.500 µM): 0.104 | Rx effect (Lipid: total lipid area subtracted from baseline sFA+TNFa, normalized to nuclei count) ([1]; Donor 2, Rx Conc. 2.000 µM): 0.050 | lipid level compared to baseline (sFA+TNFa) [1, 2]: no changes | lipid level compared to baseline (sFA+TNFa) ([1]; Results 2, donor 2): no changes in lipid level | Rx effect (lipid) ([1]; Rx 0.0313 µM): -0.110 | Rx effect (lipid) ([1]; Rx 0.125 µM): 0.001 | Rx effect (lipid) ([1]; Rx 0.5 µM): 0.088 | Rx effect (lipid) ([1]; Rx 2 µM): 0.080 | Rx effect (MCP1/CCL2 secretion; donor 1, Rx 0.031 µM): -0.009 | Rx effect (MCP1/CCL2 secretion; donor 1, Rx 0.125 µM): 0.582 | Rx effect (MCP1/CCL2 secretion; donor 1, Rx 0.500 µM): 1.210 | Rx effect (MCP1/CCL2 secretion; donor 1, Rx 2.000 µM): 1.898 | Rx effect (MCP1/CCL2 secretion; donor 2, Rx 0.125 µM): 0.28 | Rx effect (MCP1/CCL2 secretion; donor 2, Rx 0.500 µM): 0.47 | Rx effect (MCP1/CCL2 secretion; donor 2, Rx 2.000 µM): 0.69 and 0.695 | MCP1 level / MCP1 secretion compared to baseline (sFA+TNF-α) (MCP1/CCL2 secretion): slight increase | MCP1 level / MCP1 secretion level compared to the baseline (sFA+TNF-α) (MCP1/CCL2 secretion): no change or a slight increase in MCP1 secretion level | Rx effect (MCP1) (MCP1/CCL2 secretion; donor 2, Rx 0.0313 µM): -0.265 | Rx effect (MCP1) (MCP1/CCL2 secretion; donor 2, Rx 0.125 µM): 0.229 | Rx effect (MCP1) (MCP1/CCL2 secretion; donor 2, Rx 0.5 µM): 0.525 | Rx effect (MCP1) (MCP1/CCL2 secretion; donor 2, Rx 2 µM): 0.301

COc1ccccc1[C@H](Cn1c(=O)n(C(C)(C)C(=O)O)c(=O)c2c(C)c(-c3ncco3)sc21)OC1CCOCC1 [Firsocostat, (R)-2-(1-(2-(2-methoxyphenyl)-2-((tetrahydro-2H-pyran-4-yl)oxy)ethyl)-5-methyl-6-(oxazol-2-yl)-2,4-dioxo-1,4-dihydrothieno[2,3-d]pyrimidin-3(2H)-yl)-2-methylpropanoic acid]
Rx effect (Lipid: total lipid area subtracted from baseline sFA+TNFa, normalized to nuclei count) ([1]; Donor 1, Rx Conc. 0.063 µM): -0.210 | Rx effect (Lipid: total lipid area subtracted from baseline sFA+TNFa, normalized to nuclei count) ([1]; Donor 1, Rx Conc. 1.000 µM): -0.412 | Rx effect (Lipid: total lipid area subtracted from baseline sFA+TNFa, normalized to nuclei count) ([1]; Donor 1, Rx Conc. 4.000 µM): -0.317 | Rx effect (Lipid: total lipid area subtracted from baseline sFA+TNFa, normalized to nuclei count) ([1]; Donor 2, Rx Conc. 0.063 µM): -0.246 | Rx effect (Lipid: total lipid area subtracted from baseline sFA+TNFa, normalized to nuclei count) ([1]; Donor 2, Rx Conc. 1.000 µM): -0.449 | Rx effect (Lipid: total lipid area subtracted from baseline sFA+TNFa, normalized to nuclei count) ([1]; Donor 2, Rx Conc. 4.000 µM): -0.485 | lipid level compared to baseline (sFA+TNFa) [1, 2]: slight reduction in lipid level | lipid level compared to baseline (sFA+TNFa) ([1]; Results 2, donor 2): slight reduction in lipid level | Rx effect (lipid) ([1]; Rx 0.0625 µM): -0.147 | Rx effect (lipid) ([1]; Rx 1 µM): -0.404 | Rx effect (lipid) ([1]; Rx 4 µM): -0.458 | Rx effect (MCP1/CCL2 secretion; donor 1, Rx 0.063 µM): -0.233 | Rx effect (MCP1/CCL2 secretion; donor 1, Rx 1.000 µM): -0.827 | Rx effect (MCP1/CCL2 secretion; donor 1, Rx 4.000 µM): -0.479 | Rx effect (MCP1/CCL2 secretion; donor 2, Rx 0.063 µM): -0.319 | Rx effect (MCP1/CCL2 secretion; donor 2, Rx 1.000 µM): -0.614 | Rx effect (MCP1/CCL2 secretion; donor 2, Rx 4.000 µM): -0.775 | MCP1 level / MCP1 secretion compared to baseline (sFA+TNF-α) (MCP1/CCL2 secretion): slight reduction in MCP1 secretion | MCP1 level / MCP1 secretion level compared to the baseline (sFA+TNF-α) (MCP1/CCL2 secretion): no change or a slight reduction in MCP1 secretion level | Rx effect (MCP1) (MCP1/CCL2 secretion; donor 2, Rx 0.0625 µM): -0.147 | Rx effect (MCP1) (MCP1/CCL2 secretion; donor 2, Rx 1 µM): -0.682 | Rx effect (MCP1) (MCP1/CCL2 secretion; donor 2, Rx 4 µM): -0.510

Source: patent US20230105984A1, “COMPOSITIONS AND METHODS FOR THE TREATMENT OF LIVER DISEASES AND DISORDERS” (AXCELLA HEALTH INC., priority 2019, published 2023)
